According to patent publication EP1242382B1, “TRICYCLIC PROTEIN KINASE INHIBITORS” (Wyeth, priority 1999, dated 2001):

Columns and labels:
[1] = system: Rat2 fibroblasts stably transformed with v-Src/Hu c-Src fusion gene; test: Anchorage independent Src-transformed fibroblast proliferation test procedure; assay type: cell-based; details: Rattus norvegicus, read-out: Src TF prolif %Inh
Source text: Anchorage Independent Src-transformed Fibroblast Proliferation Test Procedure: Rat2 fibroblasts stably transformed with a plasmid containing a CMV promotor controlled v-Src/Hu c-Src fusion gene in which the catalytic domain of human c-Src is inserted in place of the v-Src catalytic domain in the v-Src gene are used for the measurement of src dependent suspension growth.

HT-29 cells = test: Cell proliferation test procedure, HT-29 cells (MTS); assay type: cell-based; details: Homo sapiens, read-out: HT-29 prolif %Inh
Description: HT-29 cells: Compound effectiveness at inhibiting cell proliferation on plastic is performed in a 96-well format by plating 5000 cells per well in appropriate medium on day one, followed by compound addition on day 2 in serial two-fold dilutions. On day five, compound is washed away and medium containing MTS reagent (Promega) is added. Relative cell number is determined by reading the absorbance at 490nm of a dye produced by an NAD-dependent cellular enzymatic reaction.

Raf-1 (c-Raf) = biological target: T1, Raf-1 (c-Raf) (Homo sapiens, UniProt P04049); test: Raf1 kinase cascade assay procedure; assay type: biochemical
T1 construct: Sf9 insect cell lysate containing full length 6his-tagged recombinant human c-Raf; host or cells: c-Raf: Sf9 insect cell lysate; MEK1 and MAPK: E. coli
Description: (Specific Activity: ~200U/ml). Human Non-active Mek-1-GST and human GST-MAP kinase (recombinant proteins produced in E. coli).
• 1. Assay Dilution Buffer (ADB): 20mM MOPS, pH 7.2, 25mM β-glycerol phosphate, 5mM EGTA, 1mM sodium orthovanadate, 1mM dithiothreitol. • 2. Magnesium/ATP Cocktail: 500µM cold ATP and 75 mM magnesium chloride in ADB. • 4. Active Kinase: Human Active c-Raf: Use at 0.4U per assay point • 5. Non-active GST-MEK1: Use at 0.1µg per assay point. • 6. Non-active GST-p42 MAP Kinase: Use at 1.0 µg per assay point
• 1. TBST - Tris (50 mM, pH 7.5), NaCl (150 mM), Tween-20 (0.05 %) • 2. Superblock (Pierce) • 3. Anti-GST Ab (Pharmacia) • 4. Anti-Phospho MAPK (Sigma) • 5. Anti-Mouse Ab / Europium conjugate (Wallac)
First Stage: c-Raf Dependent Activation of GST-MEK and GST-MAPK • 1. Add […] of ADB per assay (i.e. per well of a 96 well plate) • 2. Add 10 ml of 0.5 mM cold ATP and 75 mM magnesium chloride in ADB. • 3. Add 2 ml of c-Raf (0.4U/assay), in conjunction with 1.6ml non-active MEK1 ([…]). • 4. Add 4 ml of non-active GST-p42 MAP Kinase (1.0 mg/assay). • 5. Incubate for 60 minutes at 30°C in a shaking incubator. • 6. Transfer this mixture to an anti-GST Ab coated 96 well plate (Nunc Immunosorb plates coated o/n with a-GST, then blocked with Pierce Superblock). • 7. Incubate for 60 minutes at 30°C in a shaking incubator Wash 3X with TBST, add Anti-Phospho MAPK (Sigma) (1:3000) • 6. Incubate for 60 minutes at 30°C in a shaking incubator • 7. Wash 3X with TBST, add Anti-Mouse Ab / Europium conjugate (Wallac) (1:500) • 8. Incubate for 60 minutes at 30°C in a shaking incubator • 9. Wash 3X with TBST, Read plates in Wallac Victor model Plate Reader. • 10. Collect data analyze in Excel for single point and IC50 determinations.
Typically Raf-1 assay is run at compound concentrations from 10 µM to 1 nM in half log dilutions. (% inhibition is determined for each compound concentration).

p60^c-src (Src) = biological target: T2, p60^c-src (Src) (Homo sapiens, UniProt P12931); test: Src kinase test procedure (Elisa format); assay type: biochemical; details: dose 10 µM; read-out: Src %Inh
T2 construct: purchased Upstate Biotechnologies
Description: Inhibitors of p60^c-src (partially purified preparation purchased from Upstate Biotechnologies) tyrosine kinase activity are analyzed in an Elisa format. […] HRP-conjugated anti-phosphotyrosine is used to detect phosphorylated peptide via a color reaction. Conditions recommended by the manufacturer are employed.
Reaction conditions: Five microliter aliquots of each compound prepared fresh at the time of the assay are added as a solution in 10mM HEPES pH 7.5, 10% DMSO to the reaction well. Thirty-five microliters of reaction mix containing Src, buffer and peptide/bovine serum albumin mix are added to the compound wells and incubated at 30°C for 10 minutes (reaction buffer: 50mM TrisHCl pH 7.5, 10mM MgCl2, 0.1mM EGTA, 0.5mM Na3VO4). The reaction is started by addition of 10 microliters of ATP, incubated at 30°C for 1 hour, and stopped by addition of 20 microliters of 0.5M EDTA. The reaction mixture with the phosphorylated peptide is then transferred to a streptavidin-coated microtiter plate (provided in the kit) and allowed to bind for 20 minutes. Unbound peptide and reaction mixture is decanted and the plate is washed with PBS six times. Horseradish peroxidase-conjugated phosphotyrosine antibody supplied in the kit is incubated with the plate for one hour, then decanted. The plate is again washed with PBS six times.

[2] = biological target: T3, Kinase insert Domain containing Receptor (KDR; the catalytic domain of the VEGF receptor) (Homo sapiens, UniProt P35968); test: Inhibition of Kinase insert Domain containing Receptor (KDR); assay type: biochemical; details: read-out: KDR %Inh (10 µM)
T3 construct: KDR; the catalytic domain of the VEGF receptor
Description: KDR protein is mixed, in the presence or absence of a inhibitor compound, with a substrate peptide to be phosphorylated (a copolymer of glutamic acid and tyrosine, E:Y :: 4:1) and other cofactors such as Mg^++ and sodium vanadate (a protein tyrosine phosphatase inhibitor) in an appropriate buffer to maintain pH (7.2). ATP and a radioactive tracer (either P^32- or P^33-labeled ATP) is then added to initiate phosphorylation. After incubation, the radioactive phosphate associated with the acid-insoluble fraction of the test procedure mixture is then quantified as reflection of substrate phosphorylation.

LnCAP = test: Cell based screen for inhibitors of Raf kinase, quantitative assay; details: Homo sapiens
BxPC3 = test: as above; details: Homo sapiens, BXPC-3
[3] = system: human adenocarcinoma cell line CaCo-2; test: as above; details: Caco-2, 96 h, four days incubation
Description: (§1) • Cell Lines: Human adenocarcinoma cell line LoVo which is known to be growth inhibited by low nM concentrations of a reference standard inhibitor of Ras and human adenocarcinoma cell line CaCo-2, which is known to be growth resistant to the same reference compound. • Cell Media : RPMI 1640 with 10% Fetal Bovine Serum supplemented with L-glutamine and Pennicilin/Streptomycin. • Compounds: Supplied usually as a 10 mM stock in 100% DMSO. • Normal Saline: 150 mM NaCl • Trichloroacetic Acid (TCA): 50% (w/v) in water • Sulforhodamine B (SRB): 0.4% (w/v) in 1% Acetic Acid • Tris Base: 10 mM in water
(§2) Cells are plated at 2000 cells per well for cell line LoVo and 1500 cells for cell line CaCo-2 in 96 well plates. Cells are plated in media (200 µl) and allowed to adhere overnight at 37°C. At 24 hours post plating, compounds are added directly at a volume of 0.5 µl. For the qualitative screen (compounds screened at 25 µM) compound is added directly to cells. For the quantitative screen, compound is first diluted in DMSO to generate concentrations of compound or reference standard of: 1, 5, 10 and 25 µM. It is advisable to make the dilutions in an identical 96 well plate so that compounds can be added using a multichannel micropipettor set at 0.5 µl. The cells are then incubated for four days after which the media is removed using a 12 well manifold by first tipping the plate forward at a 45 degree angle and then inserting the manifold in an upright orientation to prevent the tips of the manifold from disturbing cells at the bottom of the plate. 200 µl of normal saline is then added to each well using an 8 well multichannel pipettor, followed by the careful addition of 50 µl of 50% TCA. The plates are then incubated for 2 hours at 4°C, after which the supernatant is removed using the same technique as above and the plated washed twice with 200 µl water. The plates are then air dried and 50 µl of SRB stock solution is carefully added so that the entire bottom of each well is covered. This again can be used using an 8 well multichannel pipettor. The SRB is incubated with fixed cells for 15 minutes at room temperature after which the SRB is removed with the manifold as described above and the plates washed twice with 350 µl of 1% acetic acid per well each time. The plates are then air dried after which the bound SRB is released from protein by the addition of 200 µl of Tris base. Resolubilizing the SRB is aided by placing the plates on a rotator for 15-30 minutes. The absorbance of each well is determined at 550 or 562 nm using a microtiter plate reader.
(§3) Each compound or dilution thereof is performed in triplicate. Outliers are identified by visual inspection of the data. Each plate should have a "0" control (vehicle only).
(§4) Quantitative Assay: A standard curve is constructed by plotting the concentration of compound against the average absorbance calculated at that concentration. […] Multiple entries for a given compound indicate that it is tested multiple times.

[4] = system: Human adenocarcinoma cell line LoVo; test: as above; details: 96 h, four days incubation
Description: as §1, §2, §3, §4

T1 sequence (P04049 whole entry): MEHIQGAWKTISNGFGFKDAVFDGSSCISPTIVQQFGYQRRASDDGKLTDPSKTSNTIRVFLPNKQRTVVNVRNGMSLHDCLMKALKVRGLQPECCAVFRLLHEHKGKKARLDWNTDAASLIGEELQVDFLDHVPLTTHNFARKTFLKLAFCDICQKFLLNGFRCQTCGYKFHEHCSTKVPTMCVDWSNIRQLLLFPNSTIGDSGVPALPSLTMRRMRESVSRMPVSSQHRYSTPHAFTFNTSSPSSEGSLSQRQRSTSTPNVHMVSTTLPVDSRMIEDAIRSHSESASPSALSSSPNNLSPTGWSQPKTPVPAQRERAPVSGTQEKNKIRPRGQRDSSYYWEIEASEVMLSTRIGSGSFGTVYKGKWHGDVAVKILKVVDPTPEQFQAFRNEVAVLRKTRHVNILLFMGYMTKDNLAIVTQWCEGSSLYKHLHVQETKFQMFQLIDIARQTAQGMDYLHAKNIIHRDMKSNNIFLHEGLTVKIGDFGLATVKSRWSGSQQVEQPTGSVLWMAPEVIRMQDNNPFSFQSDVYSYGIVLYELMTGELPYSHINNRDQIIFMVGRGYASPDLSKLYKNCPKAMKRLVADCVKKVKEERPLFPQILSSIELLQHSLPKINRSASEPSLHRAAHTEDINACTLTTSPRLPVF
T3 sequence (P35968 834-1162 limits assumed): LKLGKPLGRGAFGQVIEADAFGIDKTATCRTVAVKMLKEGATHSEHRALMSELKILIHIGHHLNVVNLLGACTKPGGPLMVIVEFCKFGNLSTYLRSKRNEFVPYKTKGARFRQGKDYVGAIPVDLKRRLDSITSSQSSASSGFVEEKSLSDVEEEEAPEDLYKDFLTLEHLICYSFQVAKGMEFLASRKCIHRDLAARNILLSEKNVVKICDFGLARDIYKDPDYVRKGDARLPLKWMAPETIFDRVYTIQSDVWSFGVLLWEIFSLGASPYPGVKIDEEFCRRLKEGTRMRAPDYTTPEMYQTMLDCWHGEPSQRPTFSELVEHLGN
T2 sequence (P12931 whole entry): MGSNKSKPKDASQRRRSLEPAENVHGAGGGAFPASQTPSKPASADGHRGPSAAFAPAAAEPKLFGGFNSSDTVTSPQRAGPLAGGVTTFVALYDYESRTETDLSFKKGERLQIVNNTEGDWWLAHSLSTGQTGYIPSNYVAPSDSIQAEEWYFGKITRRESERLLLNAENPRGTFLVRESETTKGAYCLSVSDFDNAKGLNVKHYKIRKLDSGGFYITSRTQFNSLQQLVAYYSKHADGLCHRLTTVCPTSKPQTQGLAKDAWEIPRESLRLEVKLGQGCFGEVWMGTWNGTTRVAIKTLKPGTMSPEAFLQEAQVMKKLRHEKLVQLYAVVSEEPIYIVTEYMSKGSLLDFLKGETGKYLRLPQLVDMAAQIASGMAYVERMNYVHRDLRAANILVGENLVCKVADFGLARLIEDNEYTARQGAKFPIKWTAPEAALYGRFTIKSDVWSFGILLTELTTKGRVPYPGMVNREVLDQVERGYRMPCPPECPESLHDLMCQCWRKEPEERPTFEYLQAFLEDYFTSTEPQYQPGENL

IC50 (Raf-1 (c-Raf))	IC50 (LnCAP)	IC50 (BxPC3)	IC50 [3]	IC50 [4]	Compound	inhibition at 10 µM (HT-29 cells)	further results
700 nM	–	–	–	–	COc1ccc(Cl)c(Nc2c(C#N)cnc3c2C=C2N=CN=C2C3)c1 [Example 40, 8-(2-Chloro-5-methoxy-phenylamino)imidazo[4,5-g]quinoline-7-carbonitrile]	10%	inhibition at 10 µM [1]: 0%
–	–	–	–	–	Cc1ccc(Nc2c(C#N)cnc3c2oc2ccccc23)cc1O [Example 87, 4-(3-Hydroxy-4-methylphenylamino)benzo[4,5]furo[3,2-b]pyridine-3-carbonitrile]	–	inhibition at 10 µM (p60^c-src (Src)): 0%; inhibition at 10 µM [2]: 32%
4 nM	53 nM	37 nM	900 nM	6 nM	COc1cc2cc3c(Nc4ccc(Sc5nccn5C)c(Cl)c4)c(C#N)cnc3cc2cc1OCCN1CCOCC1 [Example 149, 4-[3-Chloro-4-(1-methyl-1H-imidazol-2-ylsulfanyl)phenylamino]-7-methoxy-8-(2-morpholin-4-yl-ethoxy)benzo[g]quinoline-3-carbonitrile]	–	–
8 nM	–	40 nM	> 1000 nM	43 nM	COc1cc2cc3c(Nc4ccc(Sc5nccn5C)c(Cl)c4)c(C#N)cnc3cc2cc1OCCn1ccnn1 [Example 154, 4-[3-Chloro-4-(1-methyl-1H-imidazol-2-ylsulfanyl)phenylamino]-7-methoxy-8-(2-[1,2,3]triazol-1-yl-ethoxy)benzo[g]quinoline-3-carbonitrile]	–	–
–	–	–	–	–	COc1cc(Nc2c(C#N)cnc3c2C=C2N=CN=C2C3)cc(OC)c1OC [Example 42, 8-(3,4,5-Trimethoxyanilino)imidazo[4,5-g]quinoline-7-carbonitrile]	0%	inhibition at 0.22 µM ([1]; @ dose 0.22 µM): 50%
12 nM	19 nM	38 nM	> 1000 nM	9.4 nM	COc1cc2cc3c(Nc4ccc(Sc5nccn5C)c(Cl)c4)c(C#N)cnc3cc2cc1OCCn1nccn1 [Example 153, 4-[3-chloro-4-(1-methyl-1H-imidazol-2-ylsulfanyl)phenylamino]-7-methoxy-8-(2-[1,2,3]triazol-2-yl-ethoxy)benzo[g]quinoline-3-carbonitrile]	–	–
7 nM	12 nM	40 nM	700 nM	8.5 nM	COc1cc2cc3c(Nc4ccc(Sc5nccn5C)c(Cl)c4)c(C#N)cnc3cc2cc1OCCCN1CCOCC1 [Example 151, 4-[3-Chloro-4-(1-methyl-1H-imidazol-2-ylsulfanyl)phenylamino]-7-methoxy-8-(3-morpholin-4-yl-propoxy)benzo[g]quinoline-3-carbonitrile]	–	–
8 nM	32 nM	40 nM	> 1000 nM	29 nM	COc1cc2cc3c(Nc4ccc(Sc5nccn5C)c(Cl)c4)c(C#N)cnc3cc2cc1OCCN1CCN(C)CC1 [Example 152]	–	–
–	–	–	–	–	Cc1ccc(Nc2c(C#N)cnc3c2sc2ccccc23)cc1O [Example 70, 4-(3-Hydroxy-4-methylphenylamino)benzo[4,5]thieno[3,2-b]pyridine-3-carbonitrile]	–	inhibition at 10 µM [2]: 22%
900 nM	–	–	–	–	COc1cc(Nc2c(C#N)cnc3c2C=C2N=CN=C2C3)c(Br)cc1Cl [Example 39, 8-(2-Bromo-4-chloro-5-methoxyphenylamino)imidazo[4,5-g]quinoline-7-carbonitrile]	35%	inhibition at 10 µM [1]: 25%
–	–	–	–	–	N#Cc1cnc2c(c1Nc1ccc(Cl)cc1Br)C=C1N=CN=C1C2 [Example 38, 8-(2-Bromo-4-chlorophenylamino)imidazo[4,5-g]quinoline-7-carbonitrile]	25%	inhibition at 10 µM [1]: 0%
